From patent publication US9688615B2, “Benzimidazole inhibitors of the sodium channel” (Mark G. DeGiacomo, priority 2011, dated 2017)
Where two headings read alike, the source gives them in different places.

System: L5/L6 spinal nerve ligation (SNL) rats, mechanical hyperalgesia
Test: L5/L6 Spinal Nerve Ligation (SNL) Chung pain model, assessment of mechanical hyperalgesia (digital Randall-Selitto)
Assay type: in vivo, male Sprague-Dawley rats
Conditions: p.o.; for Response Threshold (g) 1 hr / Response Threshold (g) 2 hr / Response Threshold (g) 4 hr / effect on mechanical hyperalgesia compared to vehicle treated animals / inhibition in vivo at 30 mg/kg: 30 mg/kg; for effect on mechanical hyperalgesia compared to vehicle treated animals: time points 1, 2, 4 hours after administration
Description: The Spinal Nerve Ligation is an animal model representing peripheral nerve injury generating a neuropathic pain syndrome. In this model experimental animals develop the clinical symptoms of tactile allodynia and hyperalgesia. L5/L6 Spinal nerve ligation (SNL) injury was induced using the procedure of Kim and Chung (Kim et al., Pain 50:355-363 (1992)) in male Sprague-Dawley rats (Harlan; Indianapolis, Ind.) weighing 200 to 250 grams. An exemplary protocol is provided below
The animals were anesthetized with isoflurane, the left L6 transverse process was removed, and the L5 and L6 spinal nerves were tightly ligated with 6-0 silk suture. The wound was closed with internal sutures and external tissue adhesive.
Baseline and post-treatment values for mechanical hyperalgesia were evaluated using a digital Randall-Selitto device (dRS; IITC Life Sciences, Woodland Hills, Calif.). Animals were allowed to acclimate to the testing room for a minimum of 30 minutes before testing. Animals were placed in a restraint sling that suspends the animal, leaving the hind limbs available for testing. Paw compression threshold was measured once at each time point for the ipsilateral and contralateral paws. The stimulus was applied to the plantar surface of the hind paw by a dome-shaped tip placed between the 3rd and 4th metatarsus, and pressure was applied gradually over approximately 10 seconds. Measurements are taken from the first observed nocifensive behavior of vocalization, struggle or withdrawal. A cut-off value of 300 g was used to prevent injury to the animal. The mean and standard error of the mean (SEM) were determined for each paw for each treatment group. Fourteen days after surgery, mechanical hyperalgesia was assessed and rats were assigned to treatment groups based on pre-treatment baseline values. Prior to initiating drug delivery, baseline behavioural testing data can be obtained. At selected times after infusion of the Test or Control Article behavioural data can then be collected again.

[1] = Rattus norvegicus, po, 1 hr after administration, read-out: % Reversal 1 hr
[2] = Rattus norvegicus, po, 2 hr after administration, read-out: % Reversal 2 hr
[3] = Rattus norvegicus, po, 4 hr after administration, read-out: % Reversal 4 hr

| SMILES | Response Threshold (g) 1 hr (1 hr after administration) | Response Threshold (g) 2 hr (2 hr after administration) | Response Threshold (g) 4 hr (4 hr after administration) | effect on mechanical hyperalgesia compared to vehicle treated animals | inhibition in vivo at 30 mg/kg [1] | inhibition in vivo at 30 mg/kg [2] | inhibition in vivo at 30 mg/kg [3] | inhibition in vivo at 100 mg/kg (Rattus norvegicus, po, 2 h, 100 mg/kg, 2 hr after administration, read-out: % Reversal 2 hr) |
| --- | --- | --- | --- | --- | --- | --- | --- | --- |
| FC(F)(F)c1cc(C(F)(F)F)c2nc(CC3CNC3)[nH]c2c1 [Compound (1), 2-(azetidin-3-ylmethyl)-4,6-bis(trifluoromethyl)-1H-benzo[d]imidazole] | 93.8 g | 120.6 g | 113.3 g | significantly decreased mechanical hyperalgesia at 2 and 4 hours | 9.2% | 30.2% | 24.4% | – |
| NCC(=O)NCc1nc2cc(C(F)(F)F)cc(C(F)(F)F)c2[nH]1 [Compound (24), 2-amino-N-((5,7-bis(trifluoromethyl)-1H-benzo[d]imidazol-2-yl)methyl)acetamide] | 84.0 g | 118.4 g | 116.6 g | no significant effect on mechanical hyperalgesia at any time point tested | 0.8% | 27.9% | 26.5% | – |
| CC(C)C[C@H](CN)Cc1nc2c(C(F)(F)F)cc(C(F)(F)F)cc2[nH]1 [Compound (31), (S)-2-((4,6-bis(trifluoromethyl)-1H-benzo[d]imidazol-2-yl)methyl)-4-methylpentan-1-amine] | 107.9 g | 139.0 g | 109.9 g | significantly decreased mechanical hyperalgesia 2 and 4 hours | 17.2% | 48% | 19.2% | – |
| NCCc1nc2cc(C(F)(F)F)cc(C(F)(F)F)c2[nH]1 [Compound (33), 2-(5,7-bis(trifluoromethyl)-1H-benzo[d]imidazol-2-yl)ethanamine] | 113.6 g | 136.9 g | 150.8 g | significantly decreased mechanical hyperalgesia at 1, 2 and 4 hours | 22.4% | 44.7% | 58.1% | – |
| CC(C)(N)Cc1nc2cc(C(F)(F)F)cc(C(F)(F)F)c2[nH]1 [Compound (34), 1-(5,7-bis(trifluoromethyl)-1H-benzo[d]imidazol-2-yl)-2-methylpropan-2-amine] | 104.5 g | 144.8 g | 132.4 g | significantly decreased mechanical hyperalgesia 2 and 4 hours | 15.3% | 54.2% | 42.3% | – |
| CC(C)(N)C(=O)NCc1nc2cc(C(F)(F)F)cc(C(F)(F)F)c2[nH]1 [Compound (36), 2-amino-N-((5,7-bis(trifluoromethyl)-1H-benzo[d]imidazol-2-yl)methyl)-2-methylpropanamide] | 87.8 g | 107.0 g | 112.3 g | no significant effect on mechanical hyperalgesia at any time point tested | -0.5% | 18.6% | 23.8% | – |
| CNCc1nc2cc(C(F)(F)F)cc(C(F)(F)F)c2[nH]1 [Compound (41), 1-(5,7-bis(trifluoromethyl)-1H-benzo[d]imidazol-2-yl)-N-methylmethanamine] | 99.6 g | 108.3 g | 109.0 g | significantly decreased mechanical hyperalgesia at 2 and 4 hours | 13.8% | 20.7% | 21.3% | – |
| CN(Cc1nc2cc(C(F)(F)F)cc(C(F)(F)F)c2[nH]1)S(N)(=O)=O [Compound (56), N-{[4,6-bis(trifluoromethyl)-1H-benzimidazol-2-yl]methyl}-N-methylsulfuric diamide] | 110.8 g | 131.4 g | 140.4 g | significantly decreased mechanical hyperalgesia 2 and 4 hours | 19.8% | 40.4% | 49.4% | – |
| O=C1CNCCN1Cc1nc2cc(C(F)(F)F)cc(C(F)(F)F)c2[nH]1 [Compound (110), 1-((5,7-bis(trifluoromethyl)-1H-benzo[d]imidazol-2-yl)methyl)piperazin-2-one] | 100.6 g | 148.5 g | 126.1 g | significantly decrease mechanical hyperalgesia at two and four hours | 14.6% | 51.2% | 34.1% | – |
| NCC1(CC(=O)O)CCCCC1 [Gabapentin] | – | – | – | – | – | – | – | 55.3% |
